Measured values taken from ChEMBL document CHEMBL1201862, “PubChem BioAssay data set” (2004).
The source made the active and inactive calls.

Experiments:
[1] = target: Melanin-concentrating hormone receptor 1 (Homo sapiens, UniProt Q99705); experiment: Fluorescence-based counterscreen for antagonists of the G-protein coupled receptor 7 (GPR7): cell-based high throughput dose response assay to identify antagonists of the melanin-concentrating hormone receptor 1 (MCHR1).; assay type: functional
[2] = target: Cyclin-dependent kinase 5/CDK5 activator 1 (Homo sapiens, UniProt Q00535); experiment: CDK5/p35 kinase inhibitors, dose response, biochemical, cherry-picked samples, set 2 (AID 504545)
[3] = target: T1, Heat shock factor protein 1 (Mus musculus, UniProt P38532); experiment: HSF1 potentiators in luciferase reporter cells, confirmation, cell-based, NIH3T3, luminescence, dose retest (AID 435004); assay type: functional;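 further: stress induced by proteasome inhibitor MG132 added 30 min after compound; luciferase reporter driven by HSF1 response element in NIH3T3 cells; actives raise luminescence as potentiators of the MG132 stress response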
T1 sequence (P38532 whole entry): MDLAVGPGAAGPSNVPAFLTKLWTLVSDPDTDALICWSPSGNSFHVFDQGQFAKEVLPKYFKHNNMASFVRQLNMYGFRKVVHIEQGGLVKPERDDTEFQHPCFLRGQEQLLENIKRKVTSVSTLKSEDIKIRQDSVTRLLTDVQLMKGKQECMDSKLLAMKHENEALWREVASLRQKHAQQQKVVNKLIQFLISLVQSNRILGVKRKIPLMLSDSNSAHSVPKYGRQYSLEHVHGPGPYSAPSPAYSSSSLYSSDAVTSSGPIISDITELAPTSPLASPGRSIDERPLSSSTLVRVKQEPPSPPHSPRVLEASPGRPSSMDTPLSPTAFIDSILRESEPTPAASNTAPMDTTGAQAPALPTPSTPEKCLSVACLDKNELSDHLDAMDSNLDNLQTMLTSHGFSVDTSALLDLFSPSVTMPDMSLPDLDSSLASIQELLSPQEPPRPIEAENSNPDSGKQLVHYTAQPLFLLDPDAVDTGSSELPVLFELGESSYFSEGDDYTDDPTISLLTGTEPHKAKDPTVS

[4] = target: Protein-tyrosine kinase 2-beta (Homo sapiens, UniProt Q14289);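 further: potency of inhibitors of PYK2 kinase phosphorylation of poly-GT substrate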
Protein-tyrosine kinase 2-beta, sequence (Q14289 whole entry): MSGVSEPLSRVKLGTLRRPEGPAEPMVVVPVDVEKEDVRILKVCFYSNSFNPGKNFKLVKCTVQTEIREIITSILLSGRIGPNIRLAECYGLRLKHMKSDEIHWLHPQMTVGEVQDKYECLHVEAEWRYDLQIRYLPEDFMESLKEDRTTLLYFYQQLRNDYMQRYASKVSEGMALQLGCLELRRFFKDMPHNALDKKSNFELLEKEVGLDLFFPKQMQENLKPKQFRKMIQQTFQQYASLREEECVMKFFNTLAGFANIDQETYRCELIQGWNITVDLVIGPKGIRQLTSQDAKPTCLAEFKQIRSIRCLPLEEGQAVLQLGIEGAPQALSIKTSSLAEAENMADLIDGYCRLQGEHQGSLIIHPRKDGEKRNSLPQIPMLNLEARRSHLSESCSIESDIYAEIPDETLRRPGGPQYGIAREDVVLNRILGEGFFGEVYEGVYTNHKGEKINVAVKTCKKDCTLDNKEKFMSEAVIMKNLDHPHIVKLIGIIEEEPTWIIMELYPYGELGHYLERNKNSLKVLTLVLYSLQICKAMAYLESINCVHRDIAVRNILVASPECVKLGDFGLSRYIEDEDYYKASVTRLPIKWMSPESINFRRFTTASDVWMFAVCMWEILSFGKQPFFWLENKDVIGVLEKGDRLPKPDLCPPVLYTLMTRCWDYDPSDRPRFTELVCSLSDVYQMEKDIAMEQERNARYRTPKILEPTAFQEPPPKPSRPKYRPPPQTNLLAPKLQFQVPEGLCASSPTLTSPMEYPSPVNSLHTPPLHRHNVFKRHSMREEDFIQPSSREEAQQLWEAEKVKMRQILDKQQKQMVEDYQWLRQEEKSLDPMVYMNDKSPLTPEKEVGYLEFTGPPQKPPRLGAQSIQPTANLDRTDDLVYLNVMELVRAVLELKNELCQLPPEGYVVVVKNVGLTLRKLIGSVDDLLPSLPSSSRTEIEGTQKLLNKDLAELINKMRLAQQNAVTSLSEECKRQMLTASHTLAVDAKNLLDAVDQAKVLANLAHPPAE

[5] = target: Cytochrome P450 2C9 (Homo sapiens, UniProt P11712); details: Potency
Cytochrome P450 2C9, sequence (P11712 whole entry): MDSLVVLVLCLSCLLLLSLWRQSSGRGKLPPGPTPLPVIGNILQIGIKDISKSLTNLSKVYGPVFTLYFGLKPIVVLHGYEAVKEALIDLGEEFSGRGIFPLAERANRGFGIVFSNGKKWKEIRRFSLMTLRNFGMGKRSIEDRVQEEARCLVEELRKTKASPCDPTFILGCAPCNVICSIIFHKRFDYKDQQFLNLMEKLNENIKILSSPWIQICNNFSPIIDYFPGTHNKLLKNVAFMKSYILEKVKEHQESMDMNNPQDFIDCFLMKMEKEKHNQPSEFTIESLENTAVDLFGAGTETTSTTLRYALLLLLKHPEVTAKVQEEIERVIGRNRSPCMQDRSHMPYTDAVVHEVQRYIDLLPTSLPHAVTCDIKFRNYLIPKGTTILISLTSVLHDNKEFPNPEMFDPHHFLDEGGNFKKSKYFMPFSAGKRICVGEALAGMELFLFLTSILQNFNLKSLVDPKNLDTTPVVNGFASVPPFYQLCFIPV

[6] = target: Neurotensin receptor type 1 (Homo sapiens, UniProt P30989); assay type: functional;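 further: Image-based confirmatory dose-response assay measuring agonist activity at NTR1; NTR1-expressing U2OS osteosarcoma cells imaged for beta-arrestin GFP spot formation; agonist potency where compounds increase beta-arrestin recruitment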
Neurotensin receptor type 1, sequence (P30989 whole entry): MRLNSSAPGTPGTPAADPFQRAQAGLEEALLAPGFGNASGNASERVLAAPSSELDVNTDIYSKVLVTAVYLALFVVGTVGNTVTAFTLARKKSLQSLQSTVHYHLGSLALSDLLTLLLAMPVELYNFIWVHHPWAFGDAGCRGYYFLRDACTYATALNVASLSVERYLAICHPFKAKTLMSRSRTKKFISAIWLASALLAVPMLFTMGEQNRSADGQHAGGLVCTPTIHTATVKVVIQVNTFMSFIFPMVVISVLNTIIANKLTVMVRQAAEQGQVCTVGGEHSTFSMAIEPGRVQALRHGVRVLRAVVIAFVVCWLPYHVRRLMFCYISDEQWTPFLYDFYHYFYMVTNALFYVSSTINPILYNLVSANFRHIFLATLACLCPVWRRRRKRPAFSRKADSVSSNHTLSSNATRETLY

[7] = target: Albumin (Bos taurus, UniProt P02769); experiment: Counterscreen for inhibitors of T-cell receptor (TCR)-CD3 interaction: Fluorescence-based biochemical high throughput dose response assay to identify inhibitors of T-cell receptor (TCR)-CD3 interaction using a TAMRA-labeled BSA probe.; assay type: functional
Albumin, sequence (P02769 whole entry): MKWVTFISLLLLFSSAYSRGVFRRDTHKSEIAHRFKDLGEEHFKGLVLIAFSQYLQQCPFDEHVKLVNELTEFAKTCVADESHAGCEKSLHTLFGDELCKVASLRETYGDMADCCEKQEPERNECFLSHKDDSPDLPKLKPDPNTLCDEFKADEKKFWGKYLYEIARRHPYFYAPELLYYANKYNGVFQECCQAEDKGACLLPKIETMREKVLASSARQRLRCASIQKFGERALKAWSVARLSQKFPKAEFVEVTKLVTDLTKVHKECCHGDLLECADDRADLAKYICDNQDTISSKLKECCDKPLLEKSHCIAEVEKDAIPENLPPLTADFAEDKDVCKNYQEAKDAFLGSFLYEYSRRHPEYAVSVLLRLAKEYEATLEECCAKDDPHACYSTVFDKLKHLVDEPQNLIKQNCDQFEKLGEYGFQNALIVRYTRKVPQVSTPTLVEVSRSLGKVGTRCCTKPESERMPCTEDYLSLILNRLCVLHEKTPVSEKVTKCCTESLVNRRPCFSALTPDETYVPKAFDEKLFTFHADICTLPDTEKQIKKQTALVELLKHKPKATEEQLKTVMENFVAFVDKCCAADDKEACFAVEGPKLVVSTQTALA

[8] = target: T2, Alkaline phosphatase, tissue-nonspecific isozyme (Homo sapiens, UniProt P05186)
T2 sequence (P05186 whole entry): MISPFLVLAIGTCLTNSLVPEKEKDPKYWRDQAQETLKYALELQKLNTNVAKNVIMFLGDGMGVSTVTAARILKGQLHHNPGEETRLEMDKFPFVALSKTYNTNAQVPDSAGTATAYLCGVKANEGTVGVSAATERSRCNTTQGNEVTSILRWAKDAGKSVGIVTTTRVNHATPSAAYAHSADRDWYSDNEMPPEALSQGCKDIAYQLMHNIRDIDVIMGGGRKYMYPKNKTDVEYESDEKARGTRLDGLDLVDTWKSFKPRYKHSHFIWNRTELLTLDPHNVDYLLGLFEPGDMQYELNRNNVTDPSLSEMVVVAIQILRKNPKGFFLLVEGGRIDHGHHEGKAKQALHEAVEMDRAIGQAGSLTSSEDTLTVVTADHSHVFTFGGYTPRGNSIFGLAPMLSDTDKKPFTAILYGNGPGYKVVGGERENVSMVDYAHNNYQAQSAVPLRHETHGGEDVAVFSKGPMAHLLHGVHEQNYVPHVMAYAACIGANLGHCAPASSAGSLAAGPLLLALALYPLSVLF

[9] = target: Prothrombin (Homo sapiens, UniProt P00734); experiment: Thrombin 1536 HTS Dose Response Confirmation. [Related pubchem assays: 1046 (Thrombin 1536 HTS; hits were confirmed in this assay)]; assay type: functional
[10] = target: T3, Eukaryotic translation initiation factor 2-alpha kinase 3 (Homo sapiens, UniProt Q9NZJ5); experiment: Counterscreen assay for PERK inhibitors: Dose response cell-based high throughput screening assay to measure inhibition of PERK at 6 hours. [Related pubchem assays: 1522, 1416 ]; assay type: functional
T3 sequence (Q9NZJ5 whole entry): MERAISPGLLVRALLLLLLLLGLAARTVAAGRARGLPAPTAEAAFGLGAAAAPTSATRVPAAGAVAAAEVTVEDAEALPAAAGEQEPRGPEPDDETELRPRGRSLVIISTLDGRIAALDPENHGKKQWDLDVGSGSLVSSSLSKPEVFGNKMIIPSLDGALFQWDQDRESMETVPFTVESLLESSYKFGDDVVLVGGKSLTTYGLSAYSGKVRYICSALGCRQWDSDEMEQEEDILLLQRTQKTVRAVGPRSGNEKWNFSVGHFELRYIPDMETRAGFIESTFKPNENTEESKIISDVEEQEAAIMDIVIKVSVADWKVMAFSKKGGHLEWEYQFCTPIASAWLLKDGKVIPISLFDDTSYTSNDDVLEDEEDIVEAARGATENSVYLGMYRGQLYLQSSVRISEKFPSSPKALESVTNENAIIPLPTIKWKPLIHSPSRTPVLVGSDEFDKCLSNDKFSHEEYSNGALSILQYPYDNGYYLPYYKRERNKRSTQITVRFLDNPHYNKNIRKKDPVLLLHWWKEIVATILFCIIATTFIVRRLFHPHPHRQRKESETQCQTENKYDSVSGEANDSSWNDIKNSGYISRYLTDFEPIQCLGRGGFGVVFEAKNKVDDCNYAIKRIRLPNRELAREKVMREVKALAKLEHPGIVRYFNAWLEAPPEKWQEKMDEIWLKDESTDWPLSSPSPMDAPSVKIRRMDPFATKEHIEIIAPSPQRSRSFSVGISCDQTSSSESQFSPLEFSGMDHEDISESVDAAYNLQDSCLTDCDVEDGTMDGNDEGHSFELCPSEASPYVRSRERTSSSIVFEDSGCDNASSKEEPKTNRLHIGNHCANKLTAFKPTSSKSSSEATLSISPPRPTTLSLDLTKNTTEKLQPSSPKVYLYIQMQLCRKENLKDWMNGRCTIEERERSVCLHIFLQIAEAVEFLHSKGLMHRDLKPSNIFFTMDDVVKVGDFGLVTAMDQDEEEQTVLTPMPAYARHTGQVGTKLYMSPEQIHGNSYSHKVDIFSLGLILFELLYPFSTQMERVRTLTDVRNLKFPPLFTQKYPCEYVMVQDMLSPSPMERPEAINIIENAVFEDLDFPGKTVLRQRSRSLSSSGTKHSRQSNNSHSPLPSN

[11] = target: T3, Eukaryotic translation initiation factor 2-alpha kinase 3; experiment: Dose response cell-based high-throughput screening assay to measure PERK inhibition. [Related pubchem assays: 1416 ]; assay type: functional
[12] = LGR2 antagonists, dose response, cell-based, HEK293, CRE-luciferase reporter, cherry pick, set 2 (AID 743343); assay type: functional;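 further: transfected cells were stimulated with diluted bursicon conditioned medium after compound addition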
[13] = microbe, parasite or virus in culture; assay type: functional; details: Mycobacterium tuberculosis
[14] = MC4R antagonists, dose response, counter-screen for LGR2 antagonist project, cell-based, plate reader, cherry pick (AID 743444); assay type: functional;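 further: transfected HEK 293 cells stimulated with alpha-MSH peptide; potency of inhibitors of the alpha-MSH evoked signal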
[15] = HepG2 cell cytotoxicity, dose response, cytotoxicity control, plate reader, cherry-pick, antagonist series (AID 743416); assay type: functional, cell-based
[16] = target: Ion channel NompC (Danio rerio, UniProt Q7T1G6); experiment: Fluorescence counterscreen assay for TRPML3 agonists: dose response cell-based high-throughput screening assay to identify agonists of the transient receptor potential channel N1 (TRPN1). [Related pubchem assays: 1526, 1424, 1448 ]; assay type: functional
[17] = target: T4, Corticotropin-releasing factor receptor 2/Corticotropin-releasing factor-binding protein (Homo sapiens, UniProt P24387+Q13324); experiment: activators of CRF receptor 2 with binding protein – uHTS hits, confirmation (AID 602473); assay type: functional; details: read-out: EC50_Mean
T4 sequence (Q13324 whole entry): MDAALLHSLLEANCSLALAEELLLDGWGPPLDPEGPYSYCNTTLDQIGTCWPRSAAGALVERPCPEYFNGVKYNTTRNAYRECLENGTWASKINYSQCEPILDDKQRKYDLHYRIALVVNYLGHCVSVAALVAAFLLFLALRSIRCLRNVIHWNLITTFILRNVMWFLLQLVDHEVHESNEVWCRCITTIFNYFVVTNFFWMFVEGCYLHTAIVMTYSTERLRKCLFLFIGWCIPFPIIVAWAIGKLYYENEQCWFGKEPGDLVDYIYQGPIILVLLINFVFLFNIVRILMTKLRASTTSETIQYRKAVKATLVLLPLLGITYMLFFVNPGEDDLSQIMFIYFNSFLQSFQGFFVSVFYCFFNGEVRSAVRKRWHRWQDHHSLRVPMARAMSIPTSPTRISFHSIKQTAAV
T4 sequence (P24387 whole entry): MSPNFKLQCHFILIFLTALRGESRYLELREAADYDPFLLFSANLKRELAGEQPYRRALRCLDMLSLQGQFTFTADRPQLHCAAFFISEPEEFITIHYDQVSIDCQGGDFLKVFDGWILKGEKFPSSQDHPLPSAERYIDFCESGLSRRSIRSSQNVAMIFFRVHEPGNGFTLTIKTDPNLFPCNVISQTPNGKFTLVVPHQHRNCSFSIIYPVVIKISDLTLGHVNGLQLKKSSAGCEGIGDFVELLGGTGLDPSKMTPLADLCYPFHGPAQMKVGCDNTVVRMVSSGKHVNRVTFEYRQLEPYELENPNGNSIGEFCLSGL

[18] = target: Mucolipin-3 (Homo sapiens, UniProt Q8TDD5); experiment: Dose response cell-based high-throughput screening assay for agonists of the transient receptor potential channel ML3 (TRPML3). [Related pubchem assays: 1526, 1424, 1448 ]; assay type: functional
Mucolipin-3, sequence (Q8TDD5 whole entry): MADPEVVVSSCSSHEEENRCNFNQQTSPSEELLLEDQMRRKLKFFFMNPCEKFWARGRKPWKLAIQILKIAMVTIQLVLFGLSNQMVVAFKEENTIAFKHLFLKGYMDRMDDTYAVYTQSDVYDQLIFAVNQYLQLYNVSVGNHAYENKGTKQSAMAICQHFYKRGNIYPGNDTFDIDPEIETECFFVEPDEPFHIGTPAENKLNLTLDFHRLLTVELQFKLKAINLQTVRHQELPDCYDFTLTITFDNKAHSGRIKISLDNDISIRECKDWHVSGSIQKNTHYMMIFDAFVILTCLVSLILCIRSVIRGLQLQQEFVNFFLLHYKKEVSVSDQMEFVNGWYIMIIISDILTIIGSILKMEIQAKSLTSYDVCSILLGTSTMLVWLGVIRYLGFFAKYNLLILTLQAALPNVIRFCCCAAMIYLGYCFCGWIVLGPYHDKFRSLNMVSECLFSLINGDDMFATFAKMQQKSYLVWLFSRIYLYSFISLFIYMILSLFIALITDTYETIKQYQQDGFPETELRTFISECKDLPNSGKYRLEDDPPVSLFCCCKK

[19] = target: Trypsin (Sus scrofa, UniProt P00761); experiment: porcine trypsin inhibitors, dose response, selectivity assay for Rce1 protease inhibitor project, biochemical, quenched peptide fluorescence, cherry-pick (AID 488789)
Trypsin, sequence (P00761 whole entry): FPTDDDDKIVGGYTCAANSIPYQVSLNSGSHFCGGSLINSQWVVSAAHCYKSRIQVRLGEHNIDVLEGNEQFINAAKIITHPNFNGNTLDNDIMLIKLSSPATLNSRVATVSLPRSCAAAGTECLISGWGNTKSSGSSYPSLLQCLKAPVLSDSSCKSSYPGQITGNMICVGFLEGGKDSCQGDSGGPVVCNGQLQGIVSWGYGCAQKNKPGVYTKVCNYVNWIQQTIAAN

[20] = Luminescence Cell-Based Dose Response HTS to Identify Inhibitors of 5'UTR Stem-Loop Driven Prion Protein mRNA Translation in H4 Neuroglioblastoma Cells. [Related pubchem assays: 1827 (Project Summary), 1813 (Primary HTS)]; assay type: functional
[21] = inhibitors of SNCA 5'UTR-driven reporter translation, confirmation, H4 neuroglioma cells, luminescence (AID 1988); assay type: functional, cell-based
[22] = tested on: HT-1080; experiment: cytotoxicity in HT1080 fibrosarcoma cells, cell-based, fluorescence readout (AID 620); assay type: functional; details: Homo sapiens
[23] = target: Luciferin 4-monooxygenase (Photinus pyralis, UniProt P08659); experiment: Counter Screen for Luciferase-based Assay Positives. [Related pubchem assays: 620, 618, 411 ]
Luciferin 4-monooxygenase, sequence (P08659 whole entry): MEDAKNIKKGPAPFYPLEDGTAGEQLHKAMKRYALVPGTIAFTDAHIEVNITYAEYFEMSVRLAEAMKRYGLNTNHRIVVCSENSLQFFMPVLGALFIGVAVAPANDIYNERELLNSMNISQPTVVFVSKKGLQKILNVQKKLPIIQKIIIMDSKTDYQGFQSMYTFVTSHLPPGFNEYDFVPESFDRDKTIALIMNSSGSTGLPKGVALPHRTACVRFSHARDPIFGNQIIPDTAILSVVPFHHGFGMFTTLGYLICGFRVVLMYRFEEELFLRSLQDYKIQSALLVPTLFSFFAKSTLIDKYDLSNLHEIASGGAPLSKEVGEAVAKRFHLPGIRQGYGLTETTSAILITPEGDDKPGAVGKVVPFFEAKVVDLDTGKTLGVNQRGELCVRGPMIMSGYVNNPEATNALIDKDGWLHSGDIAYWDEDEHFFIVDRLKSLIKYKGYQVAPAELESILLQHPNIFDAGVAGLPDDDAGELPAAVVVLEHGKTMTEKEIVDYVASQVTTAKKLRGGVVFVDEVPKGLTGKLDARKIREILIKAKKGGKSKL

[24] = inhibitors of firefly luciferase expression or activity, dose response, H4 neuroglioma cells, luminescence (AID 1990); assay type: functional, cell-based
[25] = target: Voltage-dependent T-type calcium channel subunit alpha-1H (Homo sapiens, UniProt O95180); assay type: functional;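 further: channel activity triggered by adding a high calcium stimulation buffer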
[26] = target: Beta-lactamase (Pseudomonas aeruginosa, UniProt Q79MP6);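 further: biochemical dose-response test of metallo-beta-lactamase enzyme inhibition, read out by epi-absorbance; purified recombinant IMP-1 metallo-beta-lactamase with nitrocefin as substrate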
Beta-lactamase (Pseudomonas aeruginosa, UniProt Q79MP6), sequence (Q79MP6 whole entry): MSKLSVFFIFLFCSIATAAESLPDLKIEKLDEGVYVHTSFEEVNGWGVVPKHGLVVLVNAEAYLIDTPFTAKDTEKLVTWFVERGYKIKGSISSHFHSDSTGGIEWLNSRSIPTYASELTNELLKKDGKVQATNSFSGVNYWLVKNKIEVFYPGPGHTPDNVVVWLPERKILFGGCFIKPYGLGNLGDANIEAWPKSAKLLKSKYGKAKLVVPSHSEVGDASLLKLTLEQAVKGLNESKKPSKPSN

[27] = target: Beta-lactamase (Salmonella choleraesuis (strain SC-B67), UniProt Q5J463)
Beta-lactamase (Salmonella choleraesuis (strain SC-B67), UniProt Q5J463), sequence (Q5J463 whole entry): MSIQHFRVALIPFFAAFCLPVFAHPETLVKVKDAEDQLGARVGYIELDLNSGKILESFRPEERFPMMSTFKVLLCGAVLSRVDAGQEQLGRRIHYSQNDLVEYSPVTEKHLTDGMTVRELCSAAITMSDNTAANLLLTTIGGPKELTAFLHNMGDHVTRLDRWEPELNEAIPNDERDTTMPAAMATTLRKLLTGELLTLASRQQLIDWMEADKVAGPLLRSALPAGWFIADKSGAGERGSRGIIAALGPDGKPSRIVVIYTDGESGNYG

Melanin-concentrating hormone receptor 1, sequence (Q99705 whole entry): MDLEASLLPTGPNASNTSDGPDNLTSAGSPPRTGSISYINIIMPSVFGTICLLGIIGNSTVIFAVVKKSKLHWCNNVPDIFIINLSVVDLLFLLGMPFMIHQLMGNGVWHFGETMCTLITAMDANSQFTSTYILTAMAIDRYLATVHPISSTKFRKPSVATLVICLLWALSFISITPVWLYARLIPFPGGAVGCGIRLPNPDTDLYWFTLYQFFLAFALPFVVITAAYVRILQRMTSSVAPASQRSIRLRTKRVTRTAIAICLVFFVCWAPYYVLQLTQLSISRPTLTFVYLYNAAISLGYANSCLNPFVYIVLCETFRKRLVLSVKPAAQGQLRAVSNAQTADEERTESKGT

CCOC(=O)C(C)On1c(-c2ccccc2)nc2ccc([N+](=O)[O-])cc21 (stereo not given)
IC50 [1]: 15.9 µM (not active)

O=C1Nc2ccccc2/C1=C/c1c[nH]cn1
AC50 [2]: 0.268 µM (active)
EC50 [3]: 17.5 µM (active)
IC50 [4]: 8.78 µM (active)

C=C[C@@](C)(O)CC[C@H]1[C@]2(C)CCCC(C)(C)[C@H]2CC[C@]1(C)O
AC50 [5]: 31.6 µM (inconclusive)

COc1cc(/C=N/Nc2nc(-c3ccc(S(=O)(=O)N(C)C)cc3)cs2)ccc1O
EC50 [6]: 17.6 µM (active)

COc1ccc(/C=C2\SC(=O)N(CC(=O)NNC(=O)c3ccccc3O)C2=O)cc1
IC50 [7]: > 94.1 µM (inactive)
EC50 [8]: 64.3 µM (not active)

CCOC(=O)OCC1OC(c2ccccc2)C=CC1OC(=O)OCC (stereo not given)
AC50 [5]: 3.16 µM (inconclusive)

COc1ccc(CCNC(=O)C2CCC(CNS(=O)(=O)c3ccccc3)CC2)cc1OC (stereo not given)
IC50 [9]: > 50 µM (not active)
EC50 [8]: > 100 µM (not active)

Cc1cc(C)c(NC(=O)NC(=O)C(Cl)(Cl)Cl)c(C)c1
EC50 [10]: > 55.7 µM (not active)
EC50 [11]: > 55.7 µM (not active)

CC(NS(=O)(=O)c1ccccc1)c1nnc(S)n1-c1ccccc1 (stereo not given)
EC50 [10]: > 55.7 µM (not active)
EC50 [11]: > 55.7 µM (not active)

COC(=O)c1ccc(NC(=O)CSc2nc3ccc(N4C(=O)C5C6C=CC(C6)C5C4=O)cc3s2)cc1 (stereo not given)
AC50 [12]: 8.11 µM (active)
CC50 [13]: > 40 µM (active)
AC50 [14]: 7.79 µM (active)
AC50 [15]: > 52 µM (inactive)
EC50 [6]: > 40 µM (inactive)

O=C(c1ccc([N+](=O)[O-])cc1)N(Cc1ccc(Cl)cc1Cl)N1C(=O)CCCC1=O
EC50 [16]: > 29.9 µM (not active)
EC50 [17]: > 53 µM (inactive)
EC50 [18]: > 29.9 µM (not active)

COc1ccc(-c2ccc(-c3nnc(-c4cc(OC)ccc4OC)o3)cc2)cc1
AC50 [19]: 10.4 µM (active)

O=c1c(Cl)c(N2CCCCC2)cnn1-c1nc2ccccc2[nH]1
EC50 [20]: 34.4 µM (active)
EC50 [21]: 2.68 µM (active)
EC50 [22]: > 50 µM (not active)
EC50 [23]: 4.25 µM (active)
EC50 [24]: 2.55 µM (active)

CCN(CC)c1ccc2cc(-c3nc4ccccc4[nH]3)c(=O)oc2c1
EC50 [22]: > 50 µM (not active)
EC50 [25]: 0.434 µM (active)
IC50 [26]: 3.24 µM (active)
EC50 [23]: < 0.2 µM (active)
IC50 [27]: 0.709 µM (active)
IC50 [4]: 2.32 µM (active)
